In PubChem BioAssay (NCI):
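Interpolation was linear, between the two tested concentrations surrounding the appropriate level; five concentrations were tested over 48 hours in 96-well plates. Here, GI50 denotes the concentration required for 50% inhibition of growth. Definition used: TGI = concentration required for complete inhibition of growth.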

Legend:
Test in all cases: inhibition of tumour cell growth, NCI panel, 48 h
SK-MEL-5 melanoma = test system: SK-MEL-5 melanoma
OVCAR-5 ovarian = test system: OVCAR-5 ovarian
DU-145 prostate = test system: DU-145 prostate
SF-268 CNS = test system: SF-268 CNS
NCI-H522 lung = test system: NCI-H522 lung
HS 578T breast = test system: HS 578T breast
SR leukemia = test system: SR leukemia
OVCAR-8 ovarian = test system: OVCAR-8 ovarian
OVCAR-3 ovarian = test system: OVCAR-3 ovarian
UACC-62 melanoma = test system: UACC-62 melanoma
MOLT-4 leukemia = test system: MOLT-4 leukemia
CAKI-1 renal = test system: CAKI-1 renal
MCF7 breast = test system: MCF7 breast
SNB-19 CNS = test system: SNB-19 CNS
SK-MEL-28 melanoma = test system: SK-MEL-28 melanoma
HT29 colon = test system: HT29 colon
K-562 leukemia = test system: K-562 leukemia
SF-295 CNS = test system: SF-295 CNS
LOX IMVI melanoma = test system: LOX IMVI melanoma
U251 CNS = test system: U251 CNS
A549 NSCLC = test system: A549 NSCLC
T-47D breast = test system: T-47D breast
SW-620 colon = test system: SW-620 colon
BT-549 breast = test system: BT-549 breast
ACHN renal = test system: ACHN renal
UO-31 renal = test system: UO-31 renal
OVCAR-4 ovarian = test system: OVCAR-4 ovarian
NCI-H460 lung = test system: NCI-H460 lung
M14 melanoma = test system: M14 melanoma
CCRF-CEM leukemia = test system: CCRF-CEM leukemia
UACC-257 melanoma = test system: UACC-257 melanoma
NCI/ADR-RES ovarian = test system: NCI/ADR-RES ovarian
SK-MEL-2 melanoma = test system: SK-MEL-2 melanoma
HCT-116 colon = test system: HCT-116 colon
NCI-H23 lung = test system: NCI-H23 lung
SF-539 CNS = test system: SF-539 CNS
TK-10 renal = test system: TK-10 renal
SK-OV-3 ovarian = test system: SK-OV-3 ovarian
HL-60(TB) leukemia = test system: HL-60(TB) leukemia
COLO 205 colon = test system: COLO 205 colon
HCT-15 colon = test system: HCT-15 colon
A498 renal = test system: A498 renal
HOP-62 NSCLC = test system: HOP-62 NSCLC
HCC-2998 colon = test system: HCC-2998 colon
HOP-92 NSCLC = test system: HOP-92 NSCLC
SN12C renal = test system: SN12C renal
PC-3 prostate = test system: PC-3 prostate
KM12 colon = test system: KM12 colon
786-0 renal = test system: 786-0 renal
SNB-75 CNS = test system: SNB-75 CNS
MDA-MB-435 = test system: MDA-MB-435
RXF 393 renal = test system: RXF 393 renal
EKVX NSCLC = test system: EKVX NSCLC
MALME-3M melanoma = test system: MALME-3M melanoma
NCI-H226 lung = test system: NCI-H226 lung

Compound `COc1ncc(-c2ccc3nccc(C#CCCCCC(=O)O)c3c2)cc1NS(=O)(=O)c1ccc(F)cc1F` has a GI50 (SK-MEL-5 melanoma) of 2840 nM, a TGI (SK-MEL-5 melanoma) of 15000 nM and a GI50 (OVCAR-5 ovarian) of 122 nM. It also gave a TGI (OVCAR-5 ovarian) of over 100000 nM, a GI50 (DU-145 prostate) of 2090 nM and a TGI (DU-145 prostate) of over 100000 nM. It also gave a GI50 (SF-268 CNS) of 1170 nM, a TGI (SF-268 CNS) of over 100000 nM and a GI50 (NCI-H522 lung) of 1250 nM. For the same compound, the TGI (NCI-H522 lung) was over 100000 nM, the GI50 (HS 578T breast) was 65.7 nM and the TGI (HS 578T breast) was 2340 nM. The GI50 (SR leukemia) was 1670 nM, the TGI (SR leukemia) was 44100 nM and the GI50 (OVCAR-8 ovarian) was 2360 nM. For the same compound, the TGI (OVCAR-8 ovarian) was over 100000 nM, the GI50 (OVCAR-3 ovarian) was 733 nM and the TGI (OVCAR-3 ovarian) was 23300 nM. It also gave a GI50 (UACC-62 melanoma) of 274 nM, a TGI (UACC-62 melanoma) of 3020 nM and a GI50 (MOLT-4 leukemia) of 520 nM. It also gave a TGI (MOLT-4 leukemia) of 33500 nM, a GI50 (CAKI-1 renal) of 819 nM and a TGI (CAKI-1 renal) of over 100000 nM. For the same compound, the GI50 (MCF7 breast) was 15 nM, the TGI (MCF7 breast) was over 100000 nM and the GI50 (SNB-19 CNS) was 2050 nM. For the same compound, the TGI (SNB-19 CNS) was 84900 nM, the GI50 (SK-MEL-28 melanoma) was 539 nM and the TGI (SK-MEL-28 melanoma) was over 100000 nM. For the same compound, the GI50 (HT29 colon) was 82.6 nM, the TGI (HT29 colon) was over 100000 nM and the GI50 (K-562 leukemia) was 17200 nM. The TGI (K-562 leukemia) was over 100000 nM, the GI50 (SF-295 CNS) was 735 nM and the TGI (SF-295 CNS) was 6450 nM. It also gave a GI50 (LOX IMVI melanoma) of 941 nM, a TGI (LOX IMVI melanoma) of 18900 nM and a GI50 (U251 CNS) of 562 nM. It also gave a TGI (U251 CNS) of 27800 nM, a GI50 (A549 NSCLC) of 557 nM and a TGI (A549 NSCLC) of over 100000 nM. The TGI (T-47D breast) was 84.9 nM, the GI50 (SW-620 colon) was 1910 nM and the TGI (SW-620 colon) was over 100000 nM. The GI50 (BT-549 breast) was 449 nM, the TGI (BT-549 breast) was 8920 nM and the GI50 (ACHN renal) was 2730 nM. The TGI (ACHN renal) was over 100000 nM, the GI50 (UO-31 renal) was 207 nM and the TGI (UO-31 renal) was 14100 nM. The GI50 (OVCAR-4 ovarian) was 3620 nM, the TGI (OVCAR-4 ovarian) was 83800 nM and the GI50 (NCI-H460 lung) was 324 nM. The TGI (NCI-H460 lung) was over 100000 nM, the GI50 (M14 melanoma) was 1610 nM and the TGI (M14 melanoma) was over 100000 nM. It also gave a GI50 (CCRF-CEM leukemia) of 1210 nM, a TGI (CCRF-CEM leukemia) of over 100000 nM and a GI50 (UACC-257 melanoma) of 355 nM. For the same compound, the TGI (UACC-257 melanoma) was 5920 nM, the GI50 (NCI/ADR-RES ovarian) was 3970 nM and the TGI (NCI/ADR-RES ovarian) was over 100000 nM. For the same compound, the GI50 (SK-MEL-2 melanoma) was 1600 nM, the TGI (SK-MEL-2 melanoma) was 15200 nM and the GI50 (HCT-116 colon) was 6850 nM. The TGI (HCT-116 colon) was over 100000 nM, the GI50 (NCI-H23 lung) was 2390 nM and the TGI (NCI-H23 lung) was over 100000 nM. The GI50 (SF-539 CNS) was 492 nM, the TGI (SF-539 CNS) was 5870 nM and the GI50 (TK-10 renal) was 84.6 nM. The TGI (TK-10 renal) was 9670 nM, the GI50 (SK-OV-3 ovarian) was 43.2 nM and the TGI (SK-OV-3 ovarian) was 657 nM. The GI50 (HL-60(TB) leukemia) was 283 nM, the TGI (HL-60(TB) leukemia) was 59100 nM and the GI50 (COLO 205 colon) was 108 nM. It also gave a TGI (COLO 205 colon) of 30200 nM, a GI50 (HCT-15 colon) of 362 nM and a TGI (HCT-15 colon) of over 100000 nM. The GI50 (A498 renal) was 40.8 nM, the TGI (A498 renal) was 799 nM and the GI50 (HOP-62 NSCLC) was 1160 nM. For the same compound, the TGI (HOP-62 NSCLC) was over 100000 nM, the GI50 (HCC-2998 colon) was 626 nM and the TGI (HCC-2998 colon) was over 100000 nM. It also gave a GI50 (HOP-92 NSCLC) of 15.8 nM, a TGI (HOP-92 NSCLC) of 620 nM and a GI50 (SN12C renal) of 2550 nM. It also gave a TGI (SN12C renal) of over 100000 nM, a GI50 (PC-3 prostate) of 548 nM and a TGI (PC-3 prostate) of over 100000 nM. For the same compound, the GI50 (KM12 colon) was 2880 nM, the TGI (KM12 colon) was over 100000 nM and the GI50 (786-0 renal) was 1040 nM. For the same compound, the TGI (786-0 renal) was 17300 nM, the GI50 (SNB-75 CNS) was 19.9 nM and the TGI (SNB-75 CNS) was 980 nM. It also gave a GI50 (MDA-MB-435) of 845 nM, a TGI (MDA-MB-435) of over 100000 nM and a GI50 (RXF 393 renal) of 1120 nM. It also gave a TGI (RXF 393 renal) of 6020 nM, a GI50 (EKVX NSCLC) of 1110 nM and a TGI (EKVX NSCLC) of 45100 nM. The GI50 (MALME-3M melanoma) was 76.1 nM, the TGI (MALME-3M melanoma) was 916 nM and the GI50 (NCI-H226 lung) was 4730 nM. For the same compound, the TGI (NCI-H226 lung) was over 100000 nM.
